Experiments:
[1] = target: full-length human LSD1 (Homo sapiens (Human), UniProt O60341); experiment: In Vitro Enzyme Inhibition Assay—LSD-1 (TR-FRET); assay type: biochemical; conditions: H3K4me1-biotin labeled peptide
Protocol: This assay determines the ability of a test compound to inhibit LSD1 demethylase activity. E. coli expressed full-length human LSD1 (Accession number 060341) was purchased from Active Motif (Cat#31334).
The enzymatic assay of LSD1 activity is based on Time Resolved-Fluorescence Resonance Energy Transfer (TR-FRET) detection. The inhibitory properties of compounds to LSD1 were determined in 384-well plate format under the following reaction conditions: 0.1-0.5 nM LSD1, 50 nM H3K4me1-biotin labeled peptide (Anaspec cat #64355), 2 μM FAD in assay buffer of 50 mM HEPES, pH7.3, 10 mM NaCl, 0.005% Brij35, 0.5 mM TCEP, 0.2 mg/ml BSA. Reaction product was determined quantitatively by TR-FRET after the addition of detection reagent Phycolink Streptavidin-allophycocyanin (Prozyme) and Europium-anti-unmodified histone H3 lysine 4 (H3K4) antibody (PerkinElmer) in the presence of LSD1 inhibitor such as 1.8 mM of Tranylcypromine hydrochloride (2-PCPA) in LANCE detection buffer (PerkinElmer) to final concentration of 12.5 nM and 0.25 nM respectively.
The assay reaction was performed according to the following procedure: 2 μL of the mixture of 150 nM H3K4me1-biotin labeled peptide with 2 μL of 11-point serial diluted test compound in 3% DMSO were added to each well of plate, followed by the addition of 2 μL of 0.3 nM LSD1 and 6 μM of FAD to initiate the reaction. The reaction mixture was then incubated at room temperature for one hour, and terminated by the addition of 6 μL of 1.8 mM 2-PCPA in LANCE detection buffer containing 25 nM Phycolink Streptavidin-allophycocyanin and 0.5 nM Europium-anti-unmodified H3K4 antibody. Enzymatic reaction is terminated within 15 minutes if 0.5 LSD1 enzyme is used in the plate. Plates were read by EnVision Multilabel Reader in TR-FRET mode (excitation at 320 nm, emission at 615 nm and 665 nm) after 1 hour incubation at room temperature. A ratio was calculated (665/615) for each well and fitted to determine inhibition constant (IC50).
The ability of the compounds disclosed herein to inhibit LSD1 activity was quantified and the respective IC50 value was determined. Table 3 provides the IC50 values of various substituted heterocyclic compounds disclosed herein.

[2] = system: THP-1 (AML) cells; experiment: LSD1 CD11b Cellular Assay (flow cytometry); assay type: cell-based; conditions: Homo sapiens, 96 h; CD11b expression in THP-1 cells, 4 days
Protocol: To analyze LSD1 inhibitor efficacy in cells, a CD11b flow cytometry assay was performed. LSD1 inhibition induces CD11b expression in THP-1 (AML) cells which can be measured by flow cytometry. […] LSD1 test compounds were serially diluted in DMSO. The dilutions were added to each well accordingly to a final concentration of 0.2% DMSO. The cells were incubated at 37 degrees Celsius in 5% CO2 for 4 days. 250 μL of each well was transferred to a well in a 96 well round bottom plate. The plate was centrifuged at 1200 rpm at 4 degrees Celsius in a Beckman Coulter Alegra 6KR centrifuge for 5 minutes. The media was removed leaving the cells at the bottom of the wells. The cells were washed in 100 μL cold HBSS (Hank's Balanced Salt Solution) plus 2% BSA (Bovine Serum Albumin) solution and centrifuged at 1200 rpm at 4 degrees Celsius for 5 minutes. The wash was removed. […] The cells were centrifuged and washed two times in 100 μl HBSS plus 2% BSA. After the final spin the cells were resuspended in 100 μL HBSS plus 2% BSA containing 1 ug/mL DAPI (4′,6-diamidino-2-phenylindole). The cells were then analyzed by flow cytometry in a BD FACSAria machine. Cells were analyzed for CD11b expression. The percent of CD11b expressing cells for each inhibitor concentration was used to determine an IC50 curve for each compound analyzed.

Row | Compound | IC50 [1] | IC50 [2]
1 | Cn1cnc2cc(-c3sc(C(=O)N4CCC[C@@H](N)C4)nc3-c3ccc(C#N)cc3)ccc21 [Example 16, 4-{2-[(3R)-3-aminopiperidine-1-carbonyl]-5-(1-methyl-1H-1,3-benzodiazol-5-yl)-1,3-thiazol-4-yl}benzonitrile] | ≤ 100 nM | < 100 nM
2 | Cn1cnc2cc(-c3sc(C(=O)N4CCC[C@@H](N)C4)nc3-c3ccc(C#N)cc3)cnc21 [Example 20, 4-{2-[(3R)-3-aminopiperidine-1-carbonyl]-5-{3-methyl-3H-imidazo[4,5-b]pyridin-6-yl}-1,3-thiazol-4-yl}benzonitrile] | ≤ 100 nM | 100 to 1000 nM
3 | Cn1cnc2cc(-c3sc(C(=O)N4CCC[C@H](N)C4)nc3-c3ccc(C#N)cc3)ccc21 [Example 17, 4-{2-[(3 S)-3-aminopiperidine-1-carbonyl]-5-(1-methyl-1H-1,3-benzodiazol-5-yl)-1,3-thiazol-4-yl}benzonitrile] | ≤ 100 nM | < 100 nM
4 | Cn1cnc2cc(-c3sc(C(=O)N4CCC(N)CC4)nc3-c3ccc(C#N)cc3)ccc21 [Example 18, 4-[2-(4-aminopiperidine-1-carbonyl)-5-(1-methyl-1H-1,3-benzodiazol-5-yl)-1,3-thiazol-4-yl]benzonitrile] | ≤ 100 nM | < 100 nM
5 | Cn1ncc2cc(-c3sc(N4CCC(N)CC4)nc3-c3ccc(C#N)cc3)cnc21 [Example 4, 4-[2-(4-aminopiperidin-1-yl)-5-{1-methyl-1H-pyrazolo[3,4-b]pyridin-5-yl}-1,3-thiazol-4-yl]benzonitrile] | ≤ 100 nM | < 100 nM
6 | N#Cc1ccc(-c2nc(N3CCC4NCCC4C3)cc(=O)n2-c2ccc(C3CC3)cc2)cc1F (stereo not drawn) [Example 27, 4-[4-(1,2,3,3a,4,6,7,7a-octahydropyrrolo[3,2-c]pyridin-5-yl)-1-(4-cyclopropylphenyl)-6-oxopyrimidin-2-yl]-2-fluorobenzonitrile] | ≤ 100 nM | < 100 nM
7 | Cn1ncc2cc(-c3sc(N4CCC(N)CC4)nc3-c3ccc(C#N)cc3)ccc21 [Example 1, 4-[2-(4-aminopiperidin-1-yl)-5-(1-methyl-1H-indazol-5-yl)-1,3-thiazol-4-yl]benzonitrile] | ≤ 100 nM | < 100 nM
8 | COc1ccc(-n2c(-c3ccc(C#N)c(F)c3)nc(N3CCC(N)CC3)cc2=O)cc1F [Example 30, 4-[4-(4-aminopiperidin-1-yl)-1-(3-fluoro-4-methoxyphenyl)-6-oxopyrimidin-2-yl]-2-fluorobenzonitrile] | ≤ 100 nM | 100 to 1000 nM
9 | N#Cc1ccc(-c2nc(N3CCC4CNCC4C3)cc(=O)n2-c2ccc(C3CC3)cc2)cc1F (stereo not drawn) [Example 28, 4-[4-(1,2,3,3a,4,6,7,7a-octahydropyrrolo[3,4-c]pyridin-5-yl)-1-(4-cyclopropylphenyl)-6-oxopyrimidin-2-yl]-2-fluorobenzonitrile] | ≤ 100 nM | < 100 nM
10 | Cn1cnc2cc(-c3sc(N4CCC(N)CC4)nc3-c3ccc(C#N)cc3)ccc21 [Example 8, 4-[2-(4-aminopiperidin-1-yl)-5-(1-methyl-1H-1,3-benzodiazol-5-yl)-1,3-thiazol-4-yl]benzonitrile] | ≤ 100 nM | < 100 nM

The next lines start with the values.

Row | IC50 [1] | IC50 [2] | Compound
11 | ≤ 100 nM | 100 to 1000 nM | N#Cc1ccc(-c2nc(N3CC[C@@H]4CNC[C@@H]4CC3)sc2-c2cnn(CC3CC3)c2)cc1 [Example 15, 4-{5-[1-(cyclopropylmethyl)-1H-pyrazol-4-yl]-2-{decahydropyrrolo[3,4-d]azepin-6-yl}-1,3-thiazol-4-yl}benzonitrile]
12 | ≤ 100 nM | 100 to 1000 nM | Cn1ncc2cc(-c3sc(N4CCC5(CCNC5)CC4)nc3-c3ccc(C#N)cc3)ccc21 [Example 5, 4-(2-{2,8-diazaspiro[4.5]decan-8-yl}-5-(1-methyl-1H-indazol-5-yl)-1,3-thiazol-4-yl)benzonitrile]
13 | ≤ 100 nM | < 100 nM | N#Cc1ccc(-c2nc(C(=O)N3CCC[C@@H](N)C3)sc2-c2cnn(CC(F)(F)F)c2)cc1 [Example 21, 4-{2-[(3R)-3-aminopiperidine-1-carbonyl]-5-[1-(2,2,2-trifluoroethyl)-1H-pyrazol-4-yl]-1,3-thiazol-4-yl}benzonitrile]
14 | ≤ 100 nM | < 100 nM | Cn1ncc2cc(-c3sc(N4CCC5NCCC5C4)nc3-c3ccc(C#N)cc3)ccc21 (stereo not drawn) [Example 6]
15 | ≤ 100 nM | 100 to 1000 nM | Cn1cc2cc(-n3c(-c4ccc(C#N)c(F)c4)nc(N4CCC(N)CC4)cc3=O)ccc2n1 [Example 31, 4-[4-(4-aminopiperidin-1-yl)-1-(2-methylindazol-5-yl)-6-oxopyrimidin-2-yl]-2-fluorobenzonitrile]
16 | ≤ 100 nM | < 100 nM | N#Cc1ccc(-c2nc(N3CCC4(CCNC4)CC3)cc(=O)n2-c2ccc(C3CC3)cc2)cc1F [Example 29, 4-[1-(4-cyclopropylphenyl)-4-(2,8-diazaspiro[4.5]decan-8-yl)-6-oxopyrimidin-2-yl]-2-fluorobenzonitrile]
17 | ≤ 100 nM | < 100 nM | Cc1ccc(-c2sc(C(=O)N3CCC[C@@H](N)C3)nc2-c2ccc(C#N)cc2)cc1 [Example 19, 4-{2-[(3R)-3-aminopiperidine-1-carbonyl]-5-(4-methylphenyl)-1,3-thiazol-4-yl}benzonitrile]
18 | ≤ 100 nM | 100 to 1000 nM | N#Cc1ccc(-c2nc(N3CCC(N)CC3)sc2-c2cnn(CC3CC3)c2)cc1 [Example 14, 4-[2-(4-aminopiperidin-1-yl)-5-[1-(cyclopropylmethyl)-1H-pyrazol-4-yl]-1,3-thiazol-4-yl]benzonitrile]

Reference: US10100046B2, “Inhibitors of lysine specific demethylase-1” (Celgene Quanticel Research, Inc., priority 2014, dated 2018)
